Key:
[1] = Toxicokinetics in the 7-day repeated intragastric administration study in SD rats; assay type: in vivo, Sprague-Dawley (SD) rat
From the text: (§1) • Test compound 1: GDC-0077 • Test compound 2: the compounds of Example 22 and Example 62 3.2.2 Vehicle • Name: 20% aqueousSBE-β-CD (Captisol) solution 3.2.3 Animal Information • Species & strains: Sprague-Dawley (SD) rat • Animal grade: SPF grade • Number and sex of animals: 160 rats, half male and half female. 3.2.4 Instruments • The ADVIA®2120 series Hematology System with Autoslide was used for blood cell counting; • The SYSMEX CA-500 Coagulation Analyzer was used for the detection of coagulation function indicators; • The TBA-120FR Automated Biochemical Analyzer was used for the detection of blood biochemical indicators; • The Easylyte Electrolyte Analyzer was used for the detection of electrolytes; • The liquid mass spectrometry detector model API4000; • The electron spray ionization (ESI) positive ion mode and column type Agilent ZORBAX XDB-C18 (3.5 μm, 2.1×50 mm) were used for bioanalytical detection of plasma samples. 3.3 Experimental Method • 1) In the experiment, 160 rats (80 rats/sex) were divided into 20 groups according to their sex and body weight, wherein 100 rats were used for toxicology study (groups 1 to 10, 5 rats/sex/group) and 60 rats were used for toxicokinetic study (groups 11 to 20, 3 rats/sex/group); • 2) As the vehicle control group, the animals in groups 1 and 11 were intragastrically administered 20% aqueous SBE-β-CD (Captisol) solution; • 3) The animals in groups 2 and 12, groups 3 and 13, and groups 4 and 14 were intragastrically administered 10, 30 and 60 mg/kg of GDC-0077, respectively; • 4) The animals in groups 5 and 15, groups 6 and 16, and groups 7 and 17 were intragastrically administered 10, 30 and 60 mg/kg of the compound of Example 22, respectively; • 5) The animals in groups 8 and 18, groups 9 and 19, groups 10 and 20 were intragastrically administered 10, 30 and 60 mg/kg of the compound of Example 62, respectively; • 5) The animals were administered once a day for 7 consecutive days (the animals in groups 7, 17, 10 and 20 were administered for 6 consecutive days). • 6) The administration volume was 10 mL/kg. • 7) During the experiment, items such as clinical observation, body weight, food intake, clinicopathological indicators (blood cell count, coagulation function, blood biochemistry), toxicokinetics and the like were studied. • 8) All animals were euthanized on Day 8 (the animals in groups 7, 10, 17 and 20 were euthanized after administration on Day 6). • 9) During the experiment, gross anatomical observation was performed on the animals in groups 1 to 10, animals in groups 17 and 20, and dead animals (including animals in toxicological study). Histopathological examination was performed on abnormal tissues, gastrointestinal tissues (such as colon, cecum) and immune tissues (such as thymus). […]

SD rats = assay: Toxicity test of a 7-day repeatedly intragastric administration in SD rats; assay type: in vivo; conditions: 7 days; for tolerance compared with GDC-0077: SD rats, 10, 30 and 60 mg/kg once/day
From the text: as §1

[2] = Pharmacokinetic (PK) assay in mice, single intragastric administration; assay type: in vivo; conditions: mouse, po, Balb/c male mice, 5 mg/kg, plasma; for AUC(0-t): read-out: Area under the curve AUC0-t; for AUC(0-inf): read-out: Area under the curve AUC0-∞; for half-life: read-out: Half life t1/2 (converted); for MRT: read-out: Mean residence time MRT; for Tmax: read-out: Peak time tmax; for Cmax: read-out: Plasma concentration Cmax
Method: The pharmacokinetic assay of the preferred compounds of the examples of the present invention in mice was carried out in Balb/c male mice (Shanghai Jiesijie Laboratory Animal Co., Ltd.).
5.1 Administration route: single intragastric administration.
5.2 Administration dose: 5 mg/10 ml/kg (body weight).
5.3 Formulation: the compound was dissolved in 0.5% CMC-Na by ultrasound to obtain a clear solution or a homogeneous suspension.
5.4 Sampling points: 0.5, 1, 2, 4, 6, 8 and 24 hours after administration.
• 1) 0.1 mL of orbital blood was collected and placed in a K2-EDTA test tube, centrifuged at 1000 to 3000×g at room temperature for 5 to 20 min to separate the plasma, which was then stored at −80° C. • 2) 160 uL of acetonitrile was added to 40 uL of plasma sample for precipitation. After mixing, the sample was centrifuged at 500 to 2000×g for 5 to 20 minutes. • 3) 100 uL of the supernatant after processing was taken and analyzed by LC/MS/MS assay to determine the concentrations of the example compound. 5.6 LC-MS/MS Assay: • Liquid chromatography condition: Shimadzu LC-20AD pump • Mass spectrometry condition: AB Sciex API 4000 mass spectrometer • Chromatographic column: phenomenex Gemiu 5 μm C18 50×4.6 mm • Mobile phase: solution A was 0.1% aqueous formic acid solution, and solution B was acetonitrile • Flow rate: 0.8 mL/min • Elution time: 0 to 4 minutes, gradient elution 5.7 Pharmacokinetics: […]

PI3Kα = target: T1, PI3Kα (Homo sapiens, UniProt P42336); assay: ADP-Glo Lipid Kinase Assay, PI3Kα kinase activity; assay type: biochemical
T1 construct: purchased Promega #V1721
Method: In this experiment, ADP-Glo Lipid Kinase Assay (Promega #V9102) from Promega was used. The lipid kinases PI3Kα/β/γ/δ catalyzed the ATP-to-ADP reaction in the presence of the substrate PIP2:3PS and ATP. The lipid kinase activity was characterized by measuring the ADP content in the reaction, and the half inhibition concentrations IC50 of the compounds on PI3Kα/β/γ/δ kinase activity were obtained.
Kinase reactions were carried out in white 384-well plates (Perkin Elmer #6007299). 2 μL of the compound of various concentrations diluted with ddH2O containing 1% DMSO was added to each well, and 2 μL of ddH2O containing 1% DMSO was added to positive control wells. […] After the reaction was carried out for 20 minutes at room temperature in the dark, the chemiluminescence was measured by BioTek Synergy H1 microplate reader.
The percentage inhibition data of the compound-treated well was calculated from positive control wells (DMSO control wells) and negative control wells (no kinase added) on the plate {% inhibition=100−[(test compound value−negative control value)]/(positive control value-negative control value)×100}. IC50 values were calculated using GraphPad prism and using a four-parameter nonlinear logistic formula to fit the data of different concentrations and corresponding percent inhibition.

[3] = doses of 10, 30 and 60 mg/kg once/day

T1 sequence (P42336 whole entry): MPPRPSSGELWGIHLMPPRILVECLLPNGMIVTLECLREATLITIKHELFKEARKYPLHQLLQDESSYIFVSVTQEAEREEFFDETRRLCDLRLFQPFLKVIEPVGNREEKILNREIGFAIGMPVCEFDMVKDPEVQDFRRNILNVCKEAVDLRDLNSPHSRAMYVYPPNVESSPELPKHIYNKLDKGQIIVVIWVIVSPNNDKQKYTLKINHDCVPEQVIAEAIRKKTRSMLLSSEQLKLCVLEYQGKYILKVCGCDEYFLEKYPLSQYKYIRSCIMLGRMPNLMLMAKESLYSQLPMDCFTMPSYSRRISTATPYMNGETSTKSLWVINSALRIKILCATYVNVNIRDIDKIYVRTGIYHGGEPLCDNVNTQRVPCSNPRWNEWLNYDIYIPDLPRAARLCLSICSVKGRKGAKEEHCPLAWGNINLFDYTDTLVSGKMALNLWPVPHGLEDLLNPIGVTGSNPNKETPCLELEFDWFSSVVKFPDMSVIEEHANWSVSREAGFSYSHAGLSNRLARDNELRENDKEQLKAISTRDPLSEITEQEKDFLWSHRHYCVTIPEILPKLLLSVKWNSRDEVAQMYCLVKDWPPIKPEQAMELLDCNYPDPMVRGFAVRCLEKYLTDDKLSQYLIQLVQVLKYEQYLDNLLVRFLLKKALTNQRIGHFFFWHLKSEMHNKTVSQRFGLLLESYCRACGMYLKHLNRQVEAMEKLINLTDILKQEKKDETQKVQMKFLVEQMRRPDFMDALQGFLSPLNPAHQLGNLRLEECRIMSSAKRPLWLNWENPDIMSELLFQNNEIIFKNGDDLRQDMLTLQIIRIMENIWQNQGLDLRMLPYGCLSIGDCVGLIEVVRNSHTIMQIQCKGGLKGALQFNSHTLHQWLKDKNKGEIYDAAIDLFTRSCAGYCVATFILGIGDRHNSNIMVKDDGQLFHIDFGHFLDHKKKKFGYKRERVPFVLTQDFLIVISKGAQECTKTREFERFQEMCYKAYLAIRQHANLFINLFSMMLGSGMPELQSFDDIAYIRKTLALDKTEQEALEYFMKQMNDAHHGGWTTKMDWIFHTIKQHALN
T1 sequence (P27986 whole entry partner): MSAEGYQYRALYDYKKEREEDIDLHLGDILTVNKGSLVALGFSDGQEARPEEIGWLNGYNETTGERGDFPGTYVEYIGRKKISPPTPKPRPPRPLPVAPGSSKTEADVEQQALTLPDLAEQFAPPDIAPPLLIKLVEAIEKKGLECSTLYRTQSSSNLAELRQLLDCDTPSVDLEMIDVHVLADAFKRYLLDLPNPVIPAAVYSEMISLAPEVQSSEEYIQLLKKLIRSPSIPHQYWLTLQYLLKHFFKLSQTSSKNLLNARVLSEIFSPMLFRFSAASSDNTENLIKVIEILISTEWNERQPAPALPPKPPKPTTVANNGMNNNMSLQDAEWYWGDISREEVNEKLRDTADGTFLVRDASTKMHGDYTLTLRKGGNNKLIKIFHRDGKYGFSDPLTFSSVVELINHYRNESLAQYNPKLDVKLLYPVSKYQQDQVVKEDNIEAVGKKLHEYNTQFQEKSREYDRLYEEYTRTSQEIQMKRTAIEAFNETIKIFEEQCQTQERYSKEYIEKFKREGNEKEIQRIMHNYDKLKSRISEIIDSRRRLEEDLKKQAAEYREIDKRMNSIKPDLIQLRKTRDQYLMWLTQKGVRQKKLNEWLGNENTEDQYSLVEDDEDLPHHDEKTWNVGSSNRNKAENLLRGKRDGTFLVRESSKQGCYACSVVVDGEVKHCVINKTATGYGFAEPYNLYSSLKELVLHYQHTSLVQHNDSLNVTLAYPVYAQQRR

Row | SMILES | systemic exposure compared with GDC-0077 at the same dose [1] | Cmax and AUC(0-24 h) compared with GDC-0077 ([1]; dose of 30 mg/kg) | Cmax and AUC(0-24 h) compared with GDC-0077 [1, 3] | tolerance compared with GDC-0077 (SD rats) | lethal dose (SD rats; SD rats, intragastric once/day) | AUC(0-t) [2] | AUC(0-inf) [2] | half-life [2] | MRT [2] | Tmax [2] | Cmax [2] | IC50 (PI3Kα)
1 | C[C@H](Nc1ccc2c(c1)OCCn1cc(N3C(=O)SC[C@H]3C(F)F)nc1-2)C(N)=O [Example 22, (S)-2-((2-((R)-4-(difluoromethyl)-2-oxothiazolidin-3-yl)-5,6-dihydrobenzo[f]imidazo[1,2-d][1,4]oxazepin-9-yl)amino)propionamide] | significantly higher than that of GDC-0077 | significantly higher than those of GDC-0077 | significantly higher than those of GDC-0077 | better than that of GDC-0077 | 60 mg/kg | – | – | – | – | – | – | –
2 | C[C@H](Nc1ccc2c(c1)SCCn1cc(N3C(=O)OC[C@H]3C(F)F)nc1-2)C(N)=O [Example 62, (S)-2-((2-((S)-4-(difluoromethyl)-2-oxooxazolidin-3-yl)-5,6-dihydrobenzo[f]imidazo[1,2-d][1,4]thiazepin-9-yl)amino)propionamide] | – | – | significantly higher than those of GDC-0077 | better than that of GDC-0077 | – | 3440 ng·h/mL | 3470 ng·h/mL | 1.5 h | 2.8 h | 0.5 h | 1250 ng/mL | 0.1 nM
3 | C[C@H](Nc1ccc2c(c1)N(C)CCn1cc(N3C(=O)OC[C@H]3C(F)F)nc1-2)C(N)=O [Example 56, (S)-2-((2-((S)-4-(difluoromethyl)-2-oxooxazolidin-3-yl)-7-methyl-6,7-dihydro-5H-benzo[f]imidazo[1,2-d][1,4]diazoheptin-9-yl)amino)propionamide] | – | – | – | – | – | 1350 ng·h/mL | 1360 ng·h/mL | 1.6 h | 2.2 h | 0.5 h | 985 ng/mL | 0.5 nM
